{
  "source": "ChEMBL document CHEMBL1811798",
  "about": "“Synthesis and evaluation of 2'-O-allyl substituted dinucleotide cap analog for mRNA translation” (Bioorg Med Chem, 2010)",
  "key": {"[1]": {"system": "Nucleic Acid", "assay": "Capping efficiency on beta-actin mRNA using [alpha-32P]-ATP at 1.6 mM after 2 hrs by gel shift assay in presence of T7 RNA polymerase", "type": "nucleic-acid assay"}, "[2]": {"system": "Nucleic Acid", "assay": "Capping efficiency on beta-actin mRNA using [alpha-32P]-ATP at 1.6 mM after 2 hrs by HPLC analysis in presence of T7 RNA polymerase", "type": "nucleic-acid assay"}, "[3]": {"system": "Escherichia phage T7", "assay": "Binding affinity to bacteriophage T7 RNA polymerase assessed as incorporation of compound into supercoiled mRNA transcript at 6 mM after 2 hrs"}, "[4]": {"system": "HeLa", "assay": "Translational efficiency bacteriophage T7 RNA polymerase expressed in human HeLa cells assessed as protein production using 5'-capped RAN after 16 hrs of post-transfection by luciferase reporter gene assay relative to standard cap analog", "type": "cell-based", "settings": "Escherichia phage T7"}},
  "note": "Active and inactive are the calls of the source. The rule behind the calls is not given here.",
  "data": [
    {"smiles": "C=CCO[C@@H]1[C@H](O)[C@@H](COP(=O)(O)OP(=O)([O-])OP(=O)(O)OC[C@H]2O[C@@H](n3cnc4c(=O)[nH]c(N)nc43)[C@H](O)[C@@H]2O)O[C@H]1[n+]1cn(C)c2c(=O)[nH]c(N)nc21", "values": [
      {"measurement": "Activity", "setting": "[1]", "result": 70, "unit": "%"},
      {"measurement": "Activity", "setting": "[2]", "result": "Active"},
      {"measurement": "Activity", "setting": "[3]", "result": "Active"},
      {"measurement": "fold change (FC)", "setting": "[4]", "result": 1.7}
    ]}
  ]
}
